Holding throughout (design): key: “+” indicates that the compound exibits inhibitory activity; “−” indicates that low or no inhibitory activity was observed
For assay [1], the target named is E3 (His-APC11/APC2-"APC") (Homo sapiens, UniProt Q9NYG5+Q9UJX6). Kind of assay: Plate-based E3 ligase assay (APC FLAG), auto-ubiquitination. The assay is classed as biochemical. To be noted: for APC Flag 8 pt: 8 concentrations tested. In outline: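 His-APC11/APC2 auto-ubiquitination was run in casein-blocked nickel plates for 1 h at room temperature, with E1 at 5 ng/well, UbcH5c at 20 ng/well and APC at 100 ng/well. Buffer was 62.5 mM Tris pH 7.6, 3 mM MgCl2, 1 mM DTT, 2.5 mM ATP and Flag-ubiquitin at 100 ng/well. Detection used anti-Flag/HRP chemiluminescence, and IC50 was typically from 6 or 8 concentrations versus a DMSO control.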

In assay [2] the test system is A549 cells. Kind of assay: Non-photographic proliferation analysis (Promega Cell titer Aqueous), A549. In kind it is cell-based. To be noted: 6 concentrations tested. As to the method: (§1) A549 (ATCC# CCL-185), HeLa (ATCC# CCL-2), HCT116 (ATCC# CCL-247), and H1299 (ATCC# CRL-5803) cells were maintained in T175 flasks following the ATCC recommended media and handling procedures. Flasks reaching approximately 70% confluency were trypsinized and resuspended in RPMI media (Cell-Gro catalog number 10-040-CM) modified to contain 5% FBS, 100 ug/mlPen/Strep (Cell-Gro catalog number 30-002-CL), and 0.3 mg/ml L-Glutamine (Cell-Gro catalog number 25-003-CL). A 20,000 cells/ml solution was made for plating. Cells were plated in black Packard 96 well plates by placing 100 μl per well (2,000 cells per well).
(§2) Compounds and additional media were added 24 hours after cell plating. A compound master plate was created with concentrations 500 times greater than the final concentration added to the cells. All compound testing was done in duplicate using 6.3 fold dilutions starting with 10 mM. All outside wells (and 4 internal wells) were DMSO controls. Taxol and at least one additional control were run on all plates. Three microliters of the compound master plate were added to deep well blocks containing 750 μl of RPMI media. One hundred microliters were transferred from the compound/media deep well blocks to the plated cells resulting in a 500 fold dilution of the compounds. Cells were grown at 37° C., 5% CO2 for 48 hours.
(§3) Some cell plates were treated with Promega Cell titer Aqueous 1 kit (promega—VWR catalog number G3580). In this case, 48 hours after the test compound were added, 100 μl of media were removed and 20 μl of cell titer reagent were added to all wells. Plates were incubated at 37° C. for 45 minutes prior to absorbance reads on the Wallac plate reader at 490 nm for 0.1 sec/well.

The subject of assay [3] is HeLa cells. Briefly: Non-photographic proliferation analysis (Promega Cell titer Aqueous), HeLa. The assay is classed as cell-based. To be noted: 6 concentrations tested. Here is the method: as §1, §2, §3
For assay [4], the system named is A549 cells. Kind of assay: Cell proliferation assay, photographic image analysis of proliferation, apoptosis and death (PAD assay), A549. To be noted: 6 concentrations tested. In kind it is cell-based. The procedure, abridged:
(§4)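 Cells grown in RPMI with 5% FBS (2,000/well) and dosed 24 h after plating with 6.3-fold dilutions in duplicate (master plate 500× final, top 10 mM stock). After 48 h at 37 °C, cells formamide-fixed and DAPI-stained. Image analysis counted live, apoptotic and dead cells.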

Assay [5] has as its system HeLa cells. Briefly: Cell proliferation assay, photographic image analysis of proliferation, apoptosis and death (PAD assay), HeLa. To be noted: 6 concentrations tested. The assay is classed as cell-based. The procedure, abridged:
as §4

Sequence of E3 (His-APC11/APC2-"APC") (Q9NYG5 whole entry): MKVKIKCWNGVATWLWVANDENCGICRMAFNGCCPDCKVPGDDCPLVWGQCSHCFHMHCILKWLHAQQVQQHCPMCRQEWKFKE
Sequence of E3 (His-APC11/APC2-"APC") (Q9UJX6 whole entry): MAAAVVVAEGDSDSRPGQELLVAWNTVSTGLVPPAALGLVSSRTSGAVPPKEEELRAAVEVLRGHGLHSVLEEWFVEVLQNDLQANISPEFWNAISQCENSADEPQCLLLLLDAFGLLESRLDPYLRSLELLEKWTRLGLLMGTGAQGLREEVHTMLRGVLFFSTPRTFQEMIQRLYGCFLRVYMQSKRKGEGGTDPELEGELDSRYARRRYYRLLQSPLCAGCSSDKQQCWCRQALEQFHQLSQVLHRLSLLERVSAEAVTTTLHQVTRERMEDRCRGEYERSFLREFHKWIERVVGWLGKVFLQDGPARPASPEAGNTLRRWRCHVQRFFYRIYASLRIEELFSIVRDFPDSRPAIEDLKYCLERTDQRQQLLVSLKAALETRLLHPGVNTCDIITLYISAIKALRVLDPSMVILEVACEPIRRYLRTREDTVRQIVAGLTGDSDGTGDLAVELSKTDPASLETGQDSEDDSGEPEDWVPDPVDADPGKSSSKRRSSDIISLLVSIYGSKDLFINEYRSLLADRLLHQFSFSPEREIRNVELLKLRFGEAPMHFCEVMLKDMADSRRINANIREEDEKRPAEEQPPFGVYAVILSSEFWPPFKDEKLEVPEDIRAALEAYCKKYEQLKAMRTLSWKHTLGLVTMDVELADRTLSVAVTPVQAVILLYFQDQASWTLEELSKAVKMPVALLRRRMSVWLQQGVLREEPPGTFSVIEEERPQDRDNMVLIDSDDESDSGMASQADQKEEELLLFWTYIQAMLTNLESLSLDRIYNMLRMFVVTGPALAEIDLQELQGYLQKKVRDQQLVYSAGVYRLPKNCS

In the case of `O=[N+]([O-])c1ccc(Oc2c(Cl)cc(S(=O)(=O)Nc3cccc4c3oc3ccccc34)cc2Cl)c(Cl)c1` [Example 175, 3,5-dichloro-4-(2-chloro-4-nitrophenoxy)-N-dibenzo[b,d]furan-4-ylbenzenesulfonamide], the “APC Flag 8 pt” value in assay [1] is given as “+”. Also, the “Cell Titer-Aqueous, A549 6 pt” value in the assay with A549 cells [2] is reported as “−”. In addition, in the assay with HeLa cells [3], the “Cell Titer-Aqueous, HELA 6 pt” value is “−”.
In the case of `O=[N+]([O-])c1ccc(Oc2c(Cl)cc(S(=O)(=O)Nc3cccnc3Cl)cc2Cl)c(Cl)c1` [Example 207, 3,5-dichloro-4-(2-chloro-4-nitrophenoxy)-N-(2-chloropyridin-3-yl)benzenesulfonamide], the “APC Flag 8 pt” value in assay [1] was “+”. Further, the “Cell Titer-Aqueous, A549 6 pt” value in the assay with A549 cells [2] is reported as “+”. Also, in the assay on HeLa cells [3], the “Cell Titer-Aqueous, HELA 6 pt” value is on record as “+”.
Consider `O=S(=O)(Nc1ccc(Oc2cc(C(F)(F)F)ccc2Cl)cc1F)c1ccc(F)cc1` [Example 286, N-{4-[2-chloro-5-(trifluoromethyl)phenoxy]-2-fluorophenyl)-4-fluorobenzenesulfonamide], for which the “APC Flag 8 pt” value in assay [1] is “+”. The “PAD Assay, A549 6 pt” value in the assay on A549 cells [4] is given as “+”. In the assay with HeLa cells [5], the “PAD Assay, HELA 6 pt” value is “+”.
For the molecule `Cc1ccc(NS(=O)(=O)c2cc(Cl)c(Oc3ccc([N+](=O)[O-])cc3Cl)c(Cl)c2)cc1I` [Example 250, 3,5-dichloro-4-(2-chloro-4-nitrophenoxy)-N-(3-iodo-4-methylphenyl)benzenesulfonamide], the “APC Flag 8 pt” value in assay [1] is given as “+”. Also, the “PAD Assay, A549 6 pt” value in the assay on A549 cells [4] is given as “+”. The “PAD Assay, HELA 6 pt” value with HeLa cells [5] is listed as “+”.
For `O=[N+]([O-])c1ccc(Oc2ccc(S(=O)(=O)Nc3c(F)cccc3F)cc2Cl)c(C(F)(F)F)c1` [Example 268, 3-chloro-N-(2,6-difluorophenyl)-4-[4-nitro-2-(trifluoromethyl)phenoxy]benzene-sulfonamide], in assay [1], the “APC Flag 8 pt” value is given as “+”. Moreover, the “PAD Assay, A549 6 pt” value with A549 cells [4] is “+”. Moreover, the “PAD Assay, HELA 6 pt” value in the assay with HeLa cells [5] is on record as “+”.
As to `O=[N+]([O-])c1ccc(Oc2ccc(S(=O)(=O)Nc3ccc(F)cc3C(F)(F)F)cc2Cl)c(C(F)(F)F)c1` [Example 266, 3-chloro-N-[4-fluoro-2-(trifluoromethyl)phenyl]-4-[4-nitro-2-(trifluoromethyl)phenoxy]benzenesulfonamide], the “APC Flag 8 pt” value in assay [1] is recorded as “+”. The “PAD Assay, A549 6 pt” value in the assay with A549 cells [4] was “+”. Moreover, in the assay with HeLa cells [5], the “PAD Assay, HELA 6 pt” value was “+”.
Turning to `O=S(=O)(Nc1ccc(Oc2ccc(F)cc2)c(Br)c1)c1cccc(Cl)c1` [Compound 282, N-[3-bromo-4-(4-fluorophenoxy)phenyl]-3-chlorobenzenesulfonamide], the “APC Flag 8 pt” value in assay [1] is given as “+”. Also, the “PAD Assay, A549 6 pt” value in the assay with A549 cells [4] was “+”. For the same molecule, the “PAD Assay, HELA 6 pt” value in the assay with HeLa cells [5] was “−”.
Regarding `O=S(=O)(Nc1cccc2cnccc12)c1cc(Cl)c(Oc2ccc(Cl)cc2Cl)c(Cl)c1` [Example 246, 3,5-dichloro-4-(2,4-dichlorophenoxy)-N-isoquinolin-5-ylbenzenesulfonamide], the “APC Flag 8 pt” value in assay [1] was “+”. For the same molecule, the “PAD Assay, A549 6 pt” value in the assay with A549 cells [4] is “+”. In addition, in the assay with HeLa cells [5], the “PAD Assay, HELA 6 pt” value is “+”.
Take `O=[N+]([O-])c1ccc(Oc2c(Cl)cc(S(=O)(=O)Nc3c(F)cccc3F)cc2Cl)c(Cl)c1` [Example 238, 3,5-dichloro-4-(2-chloro-4-nitrophenoxy)-N-(2,6-difluorophenyl)benzenesulfonamide]: in assay [1], the “APC Flag 8 pt” value is on record as “+”. Further, the “PAD Assay, A549 6 pt” value with A549 cells [4] is “+”. Also, the “PAD Assay, HELA 6 pt” value with HeLa cells [5] is recorded as “+”.
In the case of `O=[N+]([O-])c1ccc(Oc2ccc(S(=O)(=O)Nc3ccc(C(F)(F)F)cc3Cl)cc2Cl)c(C(F)(F)F)c1` [Compound 265, 3-chloro-N-[2-chloro-4-(trifluoromethyl)phenyl]-4-[4-nitro-2-(trifluoromethyl)phenoxy]benzenesulfonamide], the “APC Flag 8 pt” value in assay [1] is on record as “+”. Also, the “PAD Assay, A549 6 pt” value in the assay on A549 cells [4] is on record as “+”. Besides, in the assay with HeLa cells [5], the “PAD Assay, HELA 6 pt” value was “+”.
With `O=S(=O)(Nc1ccc(Oc2ccc(F)cc2)c(Br)c1)c1ccc(OC(F)(F)F)cc1` [Example 284, N-[3-bRomo-4-(4-fluorophenoxy)phenyl]-4-(trifluoromethoxy)benzenesulfonamide], in assay [1], the “APC Flag 8 pt” value is given as “+”. In addition, the “PAD Assay, A549 6 pt” value in the assay with A549 cells [4] was “+”. Besides, in the assay on HeLa cells [5], the “PAD Assay, HELA 6 pt” value was “+”.
On to `Cc1c(F)cccc1NS(=O)(=O)c1cc(Cl)c(Oc2ccc([N+](=O)[O-])cc2Cl)c(Cl)c1` [Example 234, 3,5-dichloro-4-(2-chloro-4-nitrophenoxy)-N-(3-fluoro-2-methylphenyl)benzene-sulfonamide], for which, in assay [1], the “APC Flag 8 pt” value is “+”. The “PAD Assay, A549 6 pt” value in the assay on A549 cells [4] is reported as “+”. Besides, the “PAD Assay, HELA 6 pt” value in the assay on HeLa cells [5] is “+”.
In the case of `O=[N+]([O-])c1ccc(Oc2c(Cl)cc(S(=O)(=O)Nc3ccccn3)cc2Cl)c(Cl)c1` [Compound 216, 3,5-dichloro-4-(2-chloro-4-nitrophenoxy)-N-pyridin-2-ylbenzenesulfonamide], the “APC Flag (2 pt)” value in assay [1] (2 concentrations tested) is listed as “− (2 pt)”. For the same molecule, in the assay on A549 cells [4], the “PAD Assay, A549 6 pt” value is listed as “+”. For the same molecule, the “PAD Assay, HELA 6 pt” value in the assay on HeLa cells [5] was “+”.
Take `O=[N+]([O-])c1ccc(Oc2c(Cl)cc(S(=O)(=O)Nc3c(F)cc(F)cc3F)cc2Cl)c(Cl)c1` [Example 241, 3,5-dichloro-4-(2-chloro-4-nitrophenoxy)-N-(2,4,6-trifluorophenyl)benzenesulfonamide]: the “APC Flag 8 pt” value in assay [1] was “+”. In the assay on A549 cells [4], the “PAD Assay, A549 6 pt” value is given as “+”. In addition, the “PAD Assay, HELA 6 pt” value in the assay on HeLa cells [5] is “+”.
For the molecule `O=[N+]([O-])c1ccc(Oc2ccc(S(=O)(=O)Nc3cc(Cl)ccc3Cl)cc2Cl)c(C(F)(F)F)c1` [Example 261, 3-chloro-N-(2,5-dichlorophenyl)-4-(4-nitro-2-(trifluoromethyl)phenoxy]benzene-sulfonamide], the “APC Flag 8 pt” value in assay [1] is reported as “+”. Moreover, the “PAD Assay, A549 6 pt” value in the assay on A549 cells [4] is on record as “+”. Further, the “PAD Assay, HELA 6 pt” value in the assay on HeLa cells [5] is listed as “+”.
In the case of `O=[N+]([O-])c1ccc(Oc2c(Cl)cc(S(=O)(=O)Nc3cccc(F)c3)cc2Cl)c(Cl)c1` [Example 232, 3,5-dichloro-4-(2-chloro-4-nitrophenoxy)-N-(3-fluorophenyl)benzenesulfonamide], the “APC Flag 8 pt” value in assay [1] is given as “+”. For the same molecule, the “PAD Assay, A549 6 pt” value in the assay with A549 cells [4] was “+”. For the same molecule, in the assay with HeLa cells [5], the “PAD Assay, HELA 6 pt” value was “+”.
Consider `Cc1ccc(F)cc1NS(=O)(=O)c1cc(Cl)c(Oc2ccc([N+](=O)[O-])cc2Cl)c(Cl)c1` [Compound 242, 3,5-dichloro-4-(2-chloro-4-nitrophenoxy)-N-(5-fluoro-2-methylphenyl)benzene sulfonamide], for which, in assay [1], the “APC Flag 8 pt” value is given as “+”. Further, in the assay with A549 cells [4], the “PAD Assay, A549 6 pt” value was “+”. Besides, in the assay on HeLa cells [5], the “PAD Assay, HELA 6 pt” value is given as “+”.
For `CC(C)(C)c1cc2cc(NS(=O)(=O)c3cc(Cl)c(Oc4ccc([N+](=O)[O-])cc4Cl)c(Cl)c3)ccc2[nH]1` [Example 245, N-(2-tert-butyl-1H-indol-5-yl)-3,5-dichloro-4-(2-chloro-4-nitrophenoxy)benzene-sulfonamide], the “APC Flag 8 pt” value in assay [1] is on record as “+”. In addition, the “PAD Assay, A549 6 pt” value with A549 cells [4] was “+”. Moreover, in the assay on HeLa cells [5], the “PAD Assay, HELA 6 pt” value is “+”.
With `O=[N+]([O-])c1ccc(Oc2ccc(S(=O)(=O)Nc3cc(Cl)ccc3C(F)(F)F)cc2Cl)c(C(F)(F)F)c1` [Compound 267, 3-chloro-N-[5-chloro-2-(trifluoromethyl)phenyl]-4-[4-nitro-2-(trifluoromethyl)phenoxy]benzenesulfonamide], the “APC Flag 8 pt” value in assay [1] is reported as “+”. Moreover, the “PAD Assay, A549 6 pt” value in the assay with A549 cells [4] is on record as “+”. Besides, the “PAD Assay, HELA 6 pt” value with HeLa cells [5] is given as “+”.
Take `Cc1ccc(C(F)(F)F)cc1NS(=O)(=O)c1cc(Cl)c(Oc2ccc([N+](=O)[O-])cc2Cl)c(Cl)c1` [Example 229, 3,5-dichloro-4-(2-chloro-4-nitrophenoxy)-N-[2-methyl-5-(trifluoromethyl)phenyl] benzenesulfonamide]: the “APC Flag 8 pt” value in assay [1] was “+”. In addition, the “PAD Assay, A549 6 pt” value with A549 cells [4] is listed as “+”. Also, the “PAD Assay, HELA 6 pt” value with HeLa cells [5] is reported as “+”.

Source of the values: patent publication US7915293B2, “Ubiquitin ligase inhibitors” (Rigel Pharmaceuticals, Inc., priority 2003, dated 2011).
